For data set [1], the target named is T1, JAK2 (Homo sapiens, UniProt O60674).
T1 construct: purchased BPS Bioscience
The data set is described as follows: JAK2 activity assay (JAK2 assay kit, BPS Bioscience; Kinase Glo Max luminescence). In kind it is biochemical. On the procedure: According to the manufacturer’s instructions, the assay was performed in a white 96-well plate, in a total volume of 50 μL, adding a 5× kinase assay buffer, ATP (500 μM), protein tyrosine kinase substrate (10 mg/mL), water, tested molecules diluted in 0.1% DMSO solution, and JAK2 enzyme (2.5 ng/μL).
After 15 min of incubation at room temperature, the luminescence was measured by EnSpire Multimode Plate Reader (Perkin Elmer). All measurements were performed in triplicates for each compound, and the concentration range tested was 0.1–10 000 nM.

For data set [2], the target named is T1, JAK2. The arrangement: method as in earlier work. The following applies: Figure 13; read-out: IC50 of commercially available JAK2 inhibitors; cited from earlier work.
A further data set has as its system SH-SY5Y cells. The data set is described as follows: MTT cell viability assay. In kind it is cell-based, Human. The conditions noted are these: 100 μM, after 5 or 24 h, vs vehicle control. On the procedure:
Human SH-SY5Y neuroblastoma cells purchased from ICLC-IST (Genoa, Italy), were cultured in Dulbecco’s modified Eagle’s medium (DMEM), supplemented with 10% (v/v) fetal bovine serum (FBS), 100 units/mL penicillin, 100 μg/mL streptomycin, and 2 mM glutamine. Cells were incubated at 37 °C in a humidified atmosphere containing 5% CO2 and were allowed to reach 80% confluence before starting treatments. All reagents employed for cell culture were purchased from Lonza (Milan, Italy).
Drugs effects on cell viability were measured using the MTT [3-(4,5-dimethylthiazol-2-yl)-2,5-diphenyltetrazolium bromide] assay.[40] All reagents were purchased from Sigma-Aldrich (Milan, Italy) unless otherwise indicated. Briefly, cells were plated on 24-well plates at a density of 3 × 10^4 cells/well and were grown to reach 80% confluence. Cells were treated with vehicle (DMEM containing 0.1% dimethyl sulfoxide (DMSO)) or drugs dissolved in vehicle at the final concentrations of 1, 10, or 100 μM. After 5 or 24 h, the culture medium was removed and replaced with fresh DMEM containing the MTT solution (0.5 mg/mL) and cells were incubated in the dark for 3 h at 37 °C. […] The optical densities (ODs) were then recorded using a microplate spectrophotometer (GENios Tecan, Austria) at 590 nm. Results were expressed as a percentage of OD values of drug-treated cell cultures compared to vehicle-treated ones.
On the technique in general: Formazan colour is commonly taken as a measure of viable cells.

A short description of data set [3]: Solubility for in vitro testing. The conditions noted are these: reason for not testing in vitro. In kind it is physicochemical.
[4] abbreviates: 95% confidence limits in brackets, triplicates, read-out: IC50 in the enzymatic assay for JAK2 inhibition.
[5] abbreviates: as quoted in abstract and conclusions, read-out: IC50 against JAK2.

Structures can show the parent of a compound that is named as a salt. Where two headings read alike, the source gives them in different places. A value given as a limit tells only on which side of the number the result lay.

T1 sequence (O60674 whole entry): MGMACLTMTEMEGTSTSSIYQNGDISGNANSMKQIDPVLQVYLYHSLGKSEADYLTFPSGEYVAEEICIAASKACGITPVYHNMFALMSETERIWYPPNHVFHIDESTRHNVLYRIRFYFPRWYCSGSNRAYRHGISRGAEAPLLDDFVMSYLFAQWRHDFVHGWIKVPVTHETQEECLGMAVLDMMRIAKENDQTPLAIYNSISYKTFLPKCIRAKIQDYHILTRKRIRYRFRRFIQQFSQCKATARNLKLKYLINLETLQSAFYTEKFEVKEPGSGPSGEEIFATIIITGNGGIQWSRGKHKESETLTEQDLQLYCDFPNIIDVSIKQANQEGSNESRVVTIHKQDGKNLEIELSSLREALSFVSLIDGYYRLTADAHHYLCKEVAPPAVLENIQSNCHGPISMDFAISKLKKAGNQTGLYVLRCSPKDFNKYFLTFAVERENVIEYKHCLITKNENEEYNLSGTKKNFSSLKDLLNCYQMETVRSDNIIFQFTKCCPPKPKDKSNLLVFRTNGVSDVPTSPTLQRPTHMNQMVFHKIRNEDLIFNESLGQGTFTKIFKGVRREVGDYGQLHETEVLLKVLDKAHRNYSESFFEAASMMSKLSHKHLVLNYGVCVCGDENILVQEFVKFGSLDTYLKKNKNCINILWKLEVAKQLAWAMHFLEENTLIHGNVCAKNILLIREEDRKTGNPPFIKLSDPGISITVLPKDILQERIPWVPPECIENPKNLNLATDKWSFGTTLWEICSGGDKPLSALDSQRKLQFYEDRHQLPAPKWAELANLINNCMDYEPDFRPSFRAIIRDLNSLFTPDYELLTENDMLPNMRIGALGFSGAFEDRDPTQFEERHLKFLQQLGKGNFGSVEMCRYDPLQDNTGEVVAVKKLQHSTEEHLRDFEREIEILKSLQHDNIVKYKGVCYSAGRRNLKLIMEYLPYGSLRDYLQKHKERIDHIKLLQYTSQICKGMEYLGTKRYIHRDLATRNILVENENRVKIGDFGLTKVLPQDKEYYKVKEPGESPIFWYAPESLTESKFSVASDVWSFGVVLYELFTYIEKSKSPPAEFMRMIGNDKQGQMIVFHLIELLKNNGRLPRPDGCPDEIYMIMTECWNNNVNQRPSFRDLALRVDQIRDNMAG

The term IC50 denotes the concentration needed to halve the response being measured. Turning to `O=C1C2C3C=CC(CO)(O3)C2C(=O)N1c1cccc([N+](=O)[O-])c1` (stereo not shown) [Compound 4], the concentration for half-maximal inhibition (IC50) at JAK2 [1] (setting [4]) stood at 0.807 µM; on JAK2 [1] (setting [5]), 0.81 µM.
`CC(=O)Nc1cc(Oc2ccc3c(nc(Nc4ccc(F)cc4F)n3C)c2C)ccn1` [CHZ868]: the IC50 at JAK2 [2] is 0.17 µM.
For `CCCC1(CCC)CCC2(CCN(CCCN(CC)CC)C2)CC1` [Atiprimod dihydrochloride], the half-inhibitory concentration (IC50) at JAK2 [2] is 0.4 µM.
Consider `CC(CCc1ccccn1)(CCc1ccccn1)C(=O)c1ccccc1` [NSC 42834], for which the IC50 on JAK2 [2] is 15 µM.
Consider `O=C(O)CSc1nnc2n1CCCN2` [Compound 6], for which, in the data set on SH-SY5Y cells, the “Cell viability (MTT)” value was “significant decrease”. The IC50 on JAK2 [1] (setting [4]) was greater than 10 µM.
Turning to `CC(=O)c1oc2ccccc2c1N` [Compound 1], the IC50 on JAK2 [1] (setting [4]) was greater than 10 µM.
`COCCNC(=O)c1cc2c(=O)n3cccc(C)c3nc2n(Cc2ccco2)c1=N` [Compound 2]: the Solubility result in data set [3] is on record as “solubility problems”.
Regarding `COC(=O)C1=C(C)NC(C)=C(C(=O)OCCN2CCN(C(=O)c3ccco3)CC2)C1c1cccc([N+](=O)[O-])c1` (stereo not shown) [Compound 8], in the data set on SH-SY5Y cells, the “Cell viability (MTT)” value is “significant decrease”. In addition, the half-inhibitory concentration (IC50) on JAK2 [1] (setting [4]) was greater than 10 µM.
As to `C[C@H](NC(=O)/C(C#N)=C/c1cccc(Br)n1)c1ccccc1` [WP1066], the IC50 at JAK2 [2] is 2.3 µM.
In the case of `NS(=O)(=O)c1ccc(NC(=O)Cn2cnc3scc(-c4ccco4)c3c2=O)cc1` [Compound 7], the 50% inhibitory concentration (IC50) was 0.637 µM on JAK2 [1] (setting [4]) and 0.64 µM at JAK2 [1] (setting [5]).
On to `COc1cccc(C2C(C#N)=C(N)Oc3[nH]nc(C)c32)c1` (stereo not shown) [Compound 3], for which the IC50 on JAK2 [1] (setting [4]) is greater than 10 µM.
On to `Cc1n[nH]c(C)c1C(=O)CC1(O)C(=O)N(Cc2ccccc2)c2ccccc21` (stereo not shown) [Compound 5], for which the IC50 at JAK2 [1] (setting [4]) was greater than 10 µM.

These data come from article PMC8491162, “Targeting the JAK/STAT Pathway: A Combined Ligand- and Target-Based Approach” (Journal of Chemical Information and Modeling, 2021).
